Assay results: patent publication US12552834B2, “Selective MENA binding peptides” (MASSACHUSETTS INSTITUTE OF TECHNOLOGY, priority 2021, dated 2026)

How the values were obtained:
[1] = tested on: EVL Y63C, I26A and VASP W89Y, L15V; assay: BLI, binding to EVL and VASP hydrophobic core mutants
ENAH EVH1 domain = biological target: T1, ENAH EVH1 domain (Homo sapiens, UniProt Q8N8S7); assay: Biolayer interferometry (BLI), SUMO-peptide fusions binding monomeric ENAH EVH1 domain WT
T1 construct: places a 6×-His and TEV cleavage tag N-terminal to the EVH1 domain; 6×-His + TEV cleavage site (N, cleaved yes); made in house; host or cells: E. coli Rosetta2(DE3)
T1 sequence (Q8N8S7 with tags, fused parts or gaps): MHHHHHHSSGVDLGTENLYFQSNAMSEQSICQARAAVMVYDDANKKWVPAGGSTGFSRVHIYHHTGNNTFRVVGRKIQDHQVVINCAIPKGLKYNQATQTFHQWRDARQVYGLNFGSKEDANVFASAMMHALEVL
Description: All BLI experiments were performed with 2 replicates on an Octet Red96 instrument (ForteBio). […] The loaded tips were immersed in a solution of ENAH EVH1 domain at a relevant dilution series in BLI buffer at an orbital shake speed of 1000 rpm and run until the binding signal plateaued. ENAH-bound tips were subsequently placed into BLI buffer only for dissociation and run until the binding signal plateaued. KD values were obtained through steady state analysis. […] The association phases were then fit to a one-phase binding model in Prism and the equilibrium steady-state binding signal values from that fit were plotted against ENAH concentration and fit to a single-site specific binding model in Prism to obtain dissociation constants. Errors reported are the standard deviation of two replicates.
Monomeric ENAH, EVL, or VASP EVH1 domains for use in BLI and ITC experiments, or ENAH EVH1-peptide fusions for crystallography was cloned into a pMCSG7 vector (gift from Frank Gertler, MIT), which places a 6×-His and TEV cleavage tag N-terminal to the EVH1 domain. These constructs were transformed into Rosetta2(DE3) cells and grown in 2×YT media supplemented with 100 μg/mL ampicillin. Cells were grown while shaking at 37° C. to an O.D. 600 of 0.5-0.7, and then cooled on ice for at least 20 minutes. They were then induced with 0.5 mM IPTG and grown while shaking at 18° C. overnight. Induced cultures were resuspended in 25 mL of wash buffer (20 mM Hepes pH 7.6, 500 mM NaCl, 20 mM imidazole) and frozen at −80° C. overnight. The next day, cultures were sonicated, spun down, and applied to Ni-NTA acid agarose resin equilibrated with wash buffer, and washed as described above. Samples were eluted in 10 mL elution buffer (20 mM Hepes pH 7.6, 500 mM NaCl, […]). TEV protease was added to the elution at a ratio of 1 mg TEV:50 mg tagged protein along with 1 mM DTT. This mixture was dialyzed against TEV cleavage buffer (50 mM Hepes pH 8.0, 300 mM NaCl, 5 mM DTT, 1 mM EDTA) at 4° C. overnight and then applied over Ni-NTA acid agarose resin equilibrated with wash buffer. The column was washed with 2×8 mL of wash buffer, and the resulting flow-through and washes were pooled, concentrated, and applied to an S75 26/60 column equilibrated in gel filtration buffer (20 mM Hepes pH 7.6, 150 mM NaCl, 1 mM DTT, 1% glycerol). Purity was verified by SDS-PAGE and combined fractions were concentrated and flash frozen at −80° C.
Rosetta2(DE3) cells (Novagen) were transformed with pDW363 vector encoding 6×-His-SUMO-peptide fusions and grown in 20 mL of LB+100 μg/mL Ampicillin+0.050 mM D-(+)-Biotin dissolved in DMSO for in vivo biotinylation. Cells were grown to an OD of 0.5-0.7 with 1 mM IPTG and induced for 4-6 hours at 37° C. Pellets were spun down and frozen and −80° C. for at least 2 hours. These pellets were then thawed and resuspended in B-PER reagent (ThermoFisher) at 4 mL/gram of pellet with 0.2 mM PMSF. This suspension was shaken at 25° C. for 10-15 minutes, and then spun down at 15,000 g for 10 minutes. The supernatant was applied to 250 μL of Ni-NTA acid agarose resin equilibrated in 20 mM Tris pH 8.0, 500 mM NaCl, 20 mM Imidazole (Buffer A), and then washed 3 times with 1 mL of this buffer. Peptides were eluted in 1.8 mL of 20 mM Tris pH 8.0, 500 mM NaCl, 300 mM imidazole to use in BLI assays.

VASP or EVL EVH1 domains = assay: BLI, paralog selectivity: ENAH versus VASP or EVL EVH1 domains; type: binding
Description: Next, we examined whether residues flanking FP4 (SEQ ID NO:46) SLiMs impact paralog specificity.
All BLI experiments were performed with 2 replicates on an Octet Red96 instrument (ForteBio). Biotinylated, 6×-His-Sumo-peptide fusions purified in small scale were diluted into BLI buffer (PBS pH 7.4, 1% BSA, 0.1% Tween-20, 1 mM DTT) and immobilized onto streptavidin-coated tips (ForteBio) until loading reached a response level between 0.5-0.6 nm. The loaded tips were immersed in a solution of ENAH EVH1 domain at a relevant dilution series in BLI buffer at an orbital shake speed of 1000 rpm and run until the binding signal plateaued. ENAH-bound tips were subsequently placed into BLI buffer only for dissociation and run until the binding signal plateaued. KD values were obtained through steady state analysis. Briefly, the data were corrected for background by subtracting the signal obtained when doing the same experiment using a biotinylated, 6×-His Sumo instead of an immobilized ENAH-binding peptide. The association phases were then fit to a one-phase binding model in Prism and the equilibrium steady-state binding signal values from that fit were plotted against ENAH concentration and fit to a single-site specific binding model in Prism to obtain dissociation constants. Errors reported are the standard deviation of two replicates. […]

| tighter binding than PCARE B (ENAH EVH1 domain) | slower dissociation than dual-motif peptide LPP (ENAH EVH1 domain; BLI off-rate) | SMILES | binding to EVL Y63C, I26A and VASP W89Y, L15V, in words [1] | preference / selectivity for ENAH over VASP or EVL EVH1 domains (VASP or EVL EVH1 domains) |
| --- | --- | --- | --- | --- |
| – | – | CSCC[C@H](NC(=O)[C@H](CC(C)C)NC(=O)[C@@H](NC(=O)[C@H](CCC(=O)O)NC(=O)[C@H](CCSC)NC(=O)[C@@H]1CCCN1C(=O)[C@@H]1CCCN1C(=O)[C@@H]1CCCN1C(=O)[C@@H]1CCCN1C(=O)[C@H](CC(C)C)NC(=O)[C@H](Cc1c[nH]cn1)NC(=O)[C@H](CCC(=O)O)NC(=O)[C@H](CC(C)C)NC(=O)[C@@H](N)CC(N)=O)C(C)C)C(=O)N[C@@H](CC(=O)O)C(=O)N[C@@H](CCCCN)C(=O)N[C@@H](CO)C(=O)N[C@@H](Cc1ccccc1)C(=O)N[C@@H](C)C(=O)N[C@@H](CO)C(=O)N[C@@H](CC(C)C)C(=O)N[C@@H](CCC(=O)O)C(=O)N[C@@H](CO)C(=O)O [PCARE B] | not sufficient to confer high affinity of binding | – |
| ~7 fold | ~100 fold | CSCC[C@H](NC(=O)[C@H](CC(C)C)NC(=O)[C@@H](NC(=O)[C@H](CCC(=O)O)NC(=O)[C@H](CCSC)NC(=O)[C@@H]1CCCN1C(=O)[C@@H]1CCCN1C(=O)[C@@H]1CCCN1C(=O)[C@@H]1CCCN1C(=O)[C@H](CC(C)C)NC(=O)[C@H](Cc1c[nH]cn1)NC(=O)[C@H](CCC(=O)O)NC(=O)[C@H](CC(C)C)NC(=O)[C@@H](N)CC(N)=O)C(C)C)C(=O)N[C@@H](CC(=O)O)C(=O)N[C@@H](CCCCN)C(=O)N[C@@H](CO)C(=O)N[C@@H](Cc1ccccc1)C(=O)N[C@@H](C)C(=O)N[C@@H](CO)C(=O)N[C@@H](CC(C)C)C(=O)N[C@@H](CCC(=O)O)C(=O)N[C@@H](CO)C(=O)NCC(=O)N[C@@H](CO)C(=O)NCC(=O)N[C@@H](CO)C(=O)N1CCC[C@H]1C(=O)N1CCC[C@H]1C(=O)N1CCC[C@H]1C(=O)N1CCC[C@H]1C(=O)N1CCC[C@H]1C(=O)N[C@@H](Cc1ccccc1)C(=O)O [PCARE-Dual] | – | 400-600 fold |
